# “And” between values parts separate entries of the source, which are not always exact repeats. Identical values can stand only once.
# Key:
# Class II HLA alleles = experiment: Soluble HLA competition binding assay, panel of five alleles (summary statements); set-up: species or system human
# Method: HLA Binding Assay. Binding activity was analyzed at EpiVax (Providence, R.I.). The binding assay used (Steere A C et al., (2006), J Exp Med, 2003(4):961-71) yielded an indirect measure of peptide-MHC affinity. Soluble HLA molecules were loaded onto a 96-well plate with the unlabeled experimental Tregitopes and labeled control peptide. Once the binding mixture reached steady equilibrium (at 24 hours), the HLA-Tregitope complexes were captured on an ELISA plate coated with anti-human DR antibody and detected with a Europium-linked probe for the label (PerkinElmer, Waltham, Mass.). Time-resolved fluorescence measuring bound labeled control peptide is assessed by a SpectraMax® M5 unit (Spectramax, Radnor, Pa.). Binding of experimental Tregitopes was expressed as the percent inhibition of the labeled control peptide (experimental fluorescence/control fluorescence multiplied by 100).
# The experimental Tregitopes were solvated in DMSO. The diluted Tregitopes were then mixed with binding reagents in aqueous buffering solution, yielding a range of final concentrations from 100,000 nM down to 100 nM. Tregitopes were then assayed against a panel of five common Class II HLA alleles: HLA-DRB1*0101, HLA-DRB1*0301, HLA-DRB1*0701, HLA-DRB1*1101, and HLA-DRB1*1501. […]
# [1] = system: CD4+ effector memory T cells; type: cell-based, human
# [2] = system: CD4+CD25+ FoxP3+ regulatory T cells; type: cell-based, human
# [3] = system: T cells in PBMCs from lupus patients; conditions: cited from earlier work
sequence,measurement,setting,value
EKDIHSGLIGPLLI (listed as Homo sapiens) [SEQ ID NO: 6],HLA binding profile,Class II HLA alleles,highly-restricted HLA binding profiles
FAVFDENKSWYLEDN (listed as Homo sapiens) [SEQ ID NO: 4],HLA binding profile,Class II HLA alleles,highly-restricted HLA binding profiles
IHSIHFSGHVFTVRK (listed as Homo sapiens) [SEQ ID NO: 2],CD4+ T cell activation and proliferation of Teff responding to TT,[1],inhibited both CD4+ T cell memory responses
same,CD4+ T cell activation reduced by,[1],70% and 50%
"KIVFKNMASRPYSIY (listed as Homo sapiens) [SEQ ID NO: 3, Factor V derived peptide, used as negative control peptide]",relative proportion of highly proliferative regulatory T cells (CFSE low FoxP3+) among CD25+ Granzyme B+ CD4+ T cells,[2],no significant effect
same,activated (CD25 high) proliferating (CFSE low) CD4 T cells stimulated by Tetanus Toxoid,[1],no significant inhibitory effect
same,activated effector CD4+ T cells (CD4+/CD25-high/FoxP3-intermediate) reacting to Tetanus Toxoid,[1],no appreciable effect
same,proliferation of CD4- cell population,[1],little inhibitory effect
same,proliferation of total CD4+ T cells (CFSE low),[1],little to no effect
RIHMVYSKRSGKPRGYAFIEY (listed as Homo sapiens) [peptide 131-151],randomly selected lupus patients whose PBMCs contain T cells that proliferate in response to the peptide,[3],40%

# Source: patent US11441122B2, “Regulatory T cell epitopes” (EpiVax, Inc., priority 2017, dated 2022)
